Assay results as given in patent US20230397605A1, “METHODS FOR IMPROVING PLANT GROWTH AND CROP YIELD BY USING COMPOUNDS OF TRISULPHIDE OR TETRASULPHIDE” (UNIVERSITY OF IOWA RESEARCH FOUNDATION, priority 2020, published 2023).

Experiments:
[1] = test system: radish; details: cited from earlier work
[2] = test system: peas; details: cited from earlier work
[3] = test system: lettuce plants; details: cited from earlier work
[4] = test system: Lettuce; test: Growth of lettuce in nutrient-film technique hydroponic system (fresh weight of leafy head at harvest); assay type: in vivo, lettuce (buttercrunch); details: treatment day 42, harvest day 58, N=28 (control mean 36.13 g)
Experimental: Lettuce was grown in a nutrient-film technique hydroponic system. The seedlings were grown under LED light film with a 14 hour on time, and a 10 hour off time. The lettuce seeds were purchased from Johnny Selected Seeds. The seed variety was buttercrunch, ID 435 g. The nutrients used were Chem-Gro lettuce formula NPK with micronutrients. Calcium nitrate and magnesium sulfate were also added to the nutrients. The nutrients and the NAC-trisulfide were added to the nutrient bucket, Which was a 4 gallon bucket that recirculated the nutrient solution through the entire NFT system to bathe the roots of the lettuce plants with nutrients and water. An air stone with air pump was used in each nutrient bucket to provide aeration to the nutrient solution. […] The nutrient reservoirs were kept pH balanced and nutrient levels were kept steady. The nutrient loading measured in EC (electrical conductivity) would gradually increase as the water was consumed but would return to normal levels once water was added to return the buckets to the max volume of 4 gallons. The conductivity (EC) and pH were measured every 1 to 2 days. Nutrient was added as EC at 4 gallons would approach a value of 0.5 EC. The starting nutrient loading was 1.7 EC, The pH of the nutrient solution was balanced using phosphoric acid “pH down” solution. The pH of the nutrient solution ranged between 6.4-7.4.
The lettuce seeds were started in a separate flood tray. The seeds were sowed into an inert solid support (Oasis Horticubes) and the support absorbed water and nutrients like a sponge. The seedlings were then grown in the seeding hay for 33 days prior to transplant into the channels. At day 42. N-acteyl cysteine trisulfide (NAC trisulfide) was added to the nutrient of the lettuce plants. […]
The lettuce plants were harvested by cutting at the root boundary and discarding the roots along with the solid support. The leafy head of lettuce was then weighed to quantify the fresh weight of the lettuce reported in the graphs (see FIG. 1).

In the case of `C1COCCN1.COc1ccc(P(=S)(S)N2CCOCC2)cc1` (stereo not shown) [GYY-4137], the “harvest yield of radishes” value ([1]; milligram loadings applied) is given as “doubled”, the growth of plants ([1]; radish) is given as “increased the growth” and the growth of plants [2] is given as “increased the growth”. The growth of plants [3] was “increased the growth”.
In the case of `CC(=O)N[C@@H](CSSSC[C@H](NC(C)=O)C(=O)O)C(=O)O` [NAC trisulfide, N-acetyl cysteine trisulfide], the “Fresh Weight (g) Mean” value ([4]; group 2, 0.2449 g/4 gal nutrient reservoir) is reported as 42.50 g, the “Fresh Weight (g) Mean” value ([4]; group 3, 0.7475 g/4 gal nutrient reservoir) is reported as 51.44 g and the “Fresh Weight (g) Mean” value ([4]; group 4, 1.6112 g/4 gal nutrient reservoir) is reported as 56.07 g.
